The values below come from BindingDB's records for doi:10.1023/a:1006986824213 (1999).

By Ki is commonly meant the equilibrium dissociation constant of an inhibitor or competing ligand from its target. The low end stands for a stronger hold on the target, the high end for a looser hold on the target.

For test [1], the target named is D(2) dopamine receptor (Rattus norvegicus, UniProt P61169).
Test [2] addresses T1, 5-hydroxytryptamine receptor 1A (Rattus norvegicus, UniProt P19327).
T1 sequence (P19327 whole entry): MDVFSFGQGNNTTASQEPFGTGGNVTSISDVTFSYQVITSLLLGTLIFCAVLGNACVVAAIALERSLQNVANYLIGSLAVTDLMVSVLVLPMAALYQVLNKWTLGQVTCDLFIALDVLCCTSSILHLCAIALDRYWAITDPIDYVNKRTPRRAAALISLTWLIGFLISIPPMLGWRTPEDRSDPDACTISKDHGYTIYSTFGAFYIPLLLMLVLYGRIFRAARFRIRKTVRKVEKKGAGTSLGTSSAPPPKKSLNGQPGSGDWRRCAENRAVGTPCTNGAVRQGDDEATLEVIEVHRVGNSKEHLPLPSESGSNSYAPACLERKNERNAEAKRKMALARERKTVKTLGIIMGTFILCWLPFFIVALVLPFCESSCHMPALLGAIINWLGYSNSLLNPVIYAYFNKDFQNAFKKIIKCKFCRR

Test [3] concerns the target Norepinephrine transporter (Rattus norvegicus, UniProt Q9JIA2).
The target in test [4] is Beta-2 adrenergic receptor (Rattus norvegicus, UniProt P10608).
Test [5] has as its target T2, Muscarinic acetylcholine receptor M2 (Rattus norvegicus, UniProt P10980).
T2 sequence (P10980 whole entry): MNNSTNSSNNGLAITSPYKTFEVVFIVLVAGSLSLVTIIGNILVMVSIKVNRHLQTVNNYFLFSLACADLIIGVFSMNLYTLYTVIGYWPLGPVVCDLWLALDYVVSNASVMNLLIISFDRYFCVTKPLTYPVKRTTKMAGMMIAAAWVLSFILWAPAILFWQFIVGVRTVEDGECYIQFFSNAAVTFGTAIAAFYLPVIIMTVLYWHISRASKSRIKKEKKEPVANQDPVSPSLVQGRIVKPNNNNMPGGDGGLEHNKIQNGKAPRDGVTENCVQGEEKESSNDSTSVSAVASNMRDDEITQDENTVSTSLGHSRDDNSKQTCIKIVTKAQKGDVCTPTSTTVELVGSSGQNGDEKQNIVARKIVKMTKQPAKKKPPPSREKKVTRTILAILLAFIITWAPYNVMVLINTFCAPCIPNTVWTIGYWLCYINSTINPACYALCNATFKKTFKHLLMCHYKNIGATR

Test [6] concerns the target T3, Alpha-2C adrenergic receptor (Rattus norvegicus, UniProt P22086).
T3 sequence (P22086 whole entry): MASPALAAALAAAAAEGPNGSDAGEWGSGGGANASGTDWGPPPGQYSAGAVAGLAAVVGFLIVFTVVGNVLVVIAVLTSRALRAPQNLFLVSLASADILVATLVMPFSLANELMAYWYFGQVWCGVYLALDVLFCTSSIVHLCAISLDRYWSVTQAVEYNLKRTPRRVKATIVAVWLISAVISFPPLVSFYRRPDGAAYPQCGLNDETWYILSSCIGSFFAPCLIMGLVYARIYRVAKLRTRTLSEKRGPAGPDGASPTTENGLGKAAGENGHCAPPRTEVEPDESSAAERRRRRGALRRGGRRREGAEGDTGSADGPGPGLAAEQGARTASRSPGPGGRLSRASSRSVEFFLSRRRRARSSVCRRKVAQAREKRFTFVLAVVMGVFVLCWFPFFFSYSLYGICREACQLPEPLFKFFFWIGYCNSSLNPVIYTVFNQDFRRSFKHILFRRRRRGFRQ

In test [7] the target is Histamine H1 receptor (Rattus norvegicus, UniProt P31390).
The target in test [8] is T4, Alpha-1A adrenergic receptor (Rattus norvegicus, UniProt P43140).
T4 sequence (P43140 whole entry): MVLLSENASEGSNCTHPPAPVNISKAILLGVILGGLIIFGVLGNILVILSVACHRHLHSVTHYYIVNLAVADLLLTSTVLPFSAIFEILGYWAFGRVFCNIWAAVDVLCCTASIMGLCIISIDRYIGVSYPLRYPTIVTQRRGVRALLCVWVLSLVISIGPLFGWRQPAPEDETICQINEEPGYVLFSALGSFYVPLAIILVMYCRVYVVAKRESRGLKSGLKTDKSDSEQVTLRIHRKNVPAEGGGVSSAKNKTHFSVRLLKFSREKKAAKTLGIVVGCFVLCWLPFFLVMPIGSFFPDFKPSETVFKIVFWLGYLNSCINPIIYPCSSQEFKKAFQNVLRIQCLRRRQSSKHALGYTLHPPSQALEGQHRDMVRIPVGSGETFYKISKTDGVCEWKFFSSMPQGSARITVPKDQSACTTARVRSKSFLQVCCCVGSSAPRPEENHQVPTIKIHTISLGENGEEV

Test [9] has as its target Sodium-dependent dopamine transporter (Rattus norvegicus, UniProt P23977).
Test [10] concerns the target D(1A) dopamine receptor (Rattus norvegicus, UniProt P18901).
In test [11] the target is T5, 5-hydroxytryptamine receptor 2C (Rattus norvegicus, UniProt P08909).
T5 sequence (P08909 whole entry): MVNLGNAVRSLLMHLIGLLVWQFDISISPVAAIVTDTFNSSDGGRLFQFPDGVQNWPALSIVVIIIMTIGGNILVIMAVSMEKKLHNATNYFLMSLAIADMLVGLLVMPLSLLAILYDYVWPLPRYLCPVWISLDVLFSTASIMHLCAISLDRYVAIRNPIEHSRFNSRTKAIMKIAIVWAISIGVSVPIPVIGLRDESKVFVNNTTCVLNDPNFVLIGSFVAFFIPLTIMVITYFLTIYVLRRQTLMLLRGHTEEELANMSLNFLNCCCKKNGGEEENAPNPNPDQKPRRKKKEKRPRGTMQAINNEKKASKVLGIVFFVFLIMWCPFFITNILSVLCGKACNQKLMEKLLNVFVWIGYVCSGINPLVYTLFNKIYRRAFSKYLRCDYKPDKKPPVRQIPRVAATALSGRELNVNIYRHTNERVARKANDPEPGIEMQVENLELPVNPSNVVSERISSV

In test [12] the target is 5-hydroxytryptamine receptor 2A (Rattus norvegicus, UniProt P14842).
The target of test [13] is Sodium-dependent serotonin transporter (Rattus norvegicus, UniProt P31652).

Counter-ions that a name gives are not always drawn.

Chain of Histamine H1 receptor (P31390 whole entry): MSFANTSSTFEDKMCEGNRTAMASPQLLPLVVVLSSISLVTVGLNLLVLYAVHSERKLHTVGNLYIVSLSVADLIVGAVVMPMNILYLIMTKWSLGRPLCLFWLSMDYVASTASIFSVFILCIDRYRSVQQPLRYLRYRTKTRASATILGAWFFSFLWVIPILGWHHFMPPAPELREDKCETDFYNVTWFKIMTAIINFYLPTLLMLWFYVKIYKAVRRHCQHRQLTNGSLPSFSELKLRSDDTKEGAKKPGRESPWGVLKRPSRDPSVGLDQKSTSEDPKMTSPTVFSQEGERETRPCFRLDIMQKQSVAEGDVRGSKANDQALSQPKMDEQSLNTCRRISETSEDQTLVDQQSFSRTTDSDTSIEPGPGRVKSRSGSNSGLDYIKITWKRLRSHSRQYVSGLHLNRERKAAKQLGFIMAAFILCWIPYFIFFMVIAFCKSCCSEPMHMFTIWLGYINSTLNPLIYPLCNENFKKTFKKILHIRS
Chain of D(1A) dopamine receptor (P18901 whole entry): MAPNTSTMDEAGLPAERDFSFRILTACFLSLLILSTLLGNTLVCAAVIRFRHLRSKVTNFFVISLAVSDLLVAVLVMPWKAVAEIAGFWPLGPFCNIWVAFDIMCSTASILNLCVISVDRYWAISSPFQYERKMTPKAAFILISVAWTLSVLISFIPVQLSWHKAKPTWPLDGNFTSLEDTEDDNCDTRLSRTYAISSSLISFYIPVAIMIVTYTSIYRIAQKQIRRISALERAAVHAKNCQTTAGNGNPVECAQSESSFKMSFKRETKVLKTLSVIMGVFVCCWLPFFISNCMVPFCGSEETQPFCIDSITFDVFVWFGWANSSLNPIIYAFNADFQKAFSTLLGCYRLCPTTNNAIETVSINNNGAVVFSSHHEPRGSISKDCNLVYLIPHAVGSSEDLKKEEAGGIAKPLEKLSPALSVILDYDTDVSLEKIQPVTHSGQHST
Chain of 5-hydroxytryptamine receptor 2A (P14842 whole entry): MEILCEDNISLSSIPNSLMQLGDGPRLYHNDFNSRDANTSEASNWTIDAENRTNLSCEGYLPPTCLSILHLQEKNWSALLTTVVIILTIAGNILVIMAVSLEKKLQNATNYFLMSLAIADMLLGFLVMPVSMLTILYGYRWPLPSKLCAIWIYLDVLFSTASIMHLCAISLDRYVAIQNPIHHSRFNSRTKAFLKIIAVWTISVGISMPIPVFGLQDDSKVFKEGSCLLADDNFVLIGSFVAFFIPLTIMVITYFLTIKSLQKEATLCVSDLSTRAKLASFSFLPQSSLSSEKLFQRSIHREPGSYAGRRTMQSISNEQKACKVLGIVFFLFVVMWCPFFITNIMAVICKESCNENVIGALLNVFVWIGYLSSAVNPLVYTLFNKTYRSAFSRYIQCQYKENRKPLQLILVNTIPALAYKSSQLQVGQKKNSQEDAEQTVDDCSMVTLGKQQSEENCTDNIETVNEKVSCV
Chain of Sodium-dependent dopamine transporter (P23977 whole entry): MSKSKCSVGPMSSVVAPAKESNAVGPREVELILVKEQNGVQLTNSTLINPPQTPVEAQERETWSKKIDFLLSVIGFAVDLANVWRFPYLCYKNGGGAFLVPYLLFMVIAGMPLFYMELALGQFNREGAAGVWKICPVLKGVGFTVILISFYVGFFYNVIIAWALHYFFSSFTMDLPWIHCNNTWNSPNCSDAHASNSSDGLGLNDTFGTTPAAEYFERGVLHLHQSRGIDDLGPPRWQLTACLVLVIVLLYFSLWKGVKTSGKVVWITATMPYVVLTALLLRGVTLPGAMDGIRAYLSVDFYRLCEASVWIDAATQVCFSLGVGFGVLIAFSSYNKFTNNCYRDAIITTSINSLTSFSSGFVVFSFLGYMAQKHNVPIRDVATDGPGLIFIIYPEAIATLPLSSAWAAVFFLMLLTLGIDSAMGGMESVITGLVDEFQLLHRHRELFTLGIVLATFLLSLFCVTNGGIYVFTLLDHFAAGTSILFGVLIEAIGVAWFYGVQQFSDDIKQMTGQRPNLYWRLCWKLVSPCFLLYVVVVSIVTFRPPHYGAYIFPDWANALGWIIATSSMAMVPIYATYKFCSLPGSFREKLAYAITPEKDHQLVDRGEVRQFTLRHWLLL
Chain of D(2) dopamine receptor (P61169 whole entry): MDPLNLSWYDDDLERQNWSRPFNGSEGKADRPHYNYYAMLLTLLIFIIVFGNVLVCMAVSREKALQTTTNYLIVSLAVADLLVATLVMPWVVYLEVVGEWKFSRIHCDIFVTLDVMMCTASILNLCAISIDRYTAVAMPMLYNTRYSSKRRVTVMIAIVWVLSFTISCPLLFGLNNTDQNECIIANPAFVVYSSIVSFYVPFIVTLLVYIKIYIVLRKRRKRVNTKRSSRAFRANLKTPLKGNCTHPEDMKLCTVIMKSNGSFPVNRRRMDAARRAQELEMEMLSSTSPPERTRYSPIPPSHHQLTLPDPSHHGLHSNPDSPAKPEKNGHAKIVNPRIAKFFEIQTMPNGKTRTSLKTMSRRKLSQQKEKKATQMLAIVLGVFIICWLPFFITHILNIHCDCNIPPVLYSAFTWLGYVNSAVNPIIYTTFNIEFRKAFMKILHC
Chain of Beta-2 adrenergic receptor (P10608 whole entry): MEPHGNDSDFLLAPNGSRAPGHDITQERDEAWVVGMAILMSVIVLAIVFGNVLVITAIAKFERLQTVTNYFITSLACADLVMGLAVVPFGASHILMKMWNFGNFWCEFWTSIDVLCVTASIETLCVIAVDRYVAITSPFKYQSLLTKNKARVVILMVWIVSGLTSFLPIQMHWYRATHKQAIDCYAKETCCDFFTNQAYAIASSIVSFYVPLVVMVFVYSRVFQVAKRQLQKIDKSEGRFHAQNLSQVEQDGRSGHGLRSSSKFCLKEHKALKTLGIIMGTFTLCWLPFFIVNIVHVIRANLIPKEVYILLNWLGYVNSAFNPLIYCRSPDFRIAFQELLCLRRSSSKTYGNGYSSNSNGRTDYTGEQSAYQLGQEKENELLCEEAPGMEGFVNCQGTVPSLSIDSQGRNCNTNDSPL
Chain of Sodium-dependent serotonin transporter (P31652 whole entry): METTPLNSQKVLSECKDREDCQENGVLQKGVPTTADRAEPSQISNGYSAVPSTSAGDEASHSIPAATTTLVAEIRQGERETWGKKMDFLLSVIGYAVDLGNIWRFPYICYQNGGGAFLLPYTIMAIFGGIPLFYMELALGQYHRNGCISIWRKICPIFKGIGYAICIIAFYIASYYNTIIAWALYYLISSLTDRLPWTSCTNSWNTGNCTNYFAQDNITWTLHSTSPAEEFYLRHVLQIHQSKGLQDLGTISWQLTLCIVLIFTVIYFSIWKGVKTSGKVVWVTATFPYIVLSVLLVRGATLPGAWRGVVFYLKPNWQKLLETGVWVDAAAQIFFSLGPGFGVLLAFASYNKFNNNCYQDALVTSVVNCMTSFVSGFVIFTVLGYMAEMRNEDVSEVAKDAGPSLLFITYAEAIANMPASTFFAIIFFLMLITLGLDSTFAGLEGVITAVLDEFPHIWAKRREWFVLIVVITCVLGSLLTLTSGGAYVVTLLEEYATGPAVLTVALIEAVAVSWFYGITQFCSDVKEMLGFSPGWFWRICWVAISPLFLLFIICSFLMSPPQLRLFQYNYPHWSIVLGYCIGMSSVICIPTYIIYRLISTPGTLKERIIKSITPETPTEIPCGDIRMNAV

On to `CN(C)CCC=C1c2ccccc2CCc2ccccc21`, for which the Ki in test [1] was 850 nM; in [2], greater than 10000 nM; in test [3], 24 nM; in test [4], greater than 10000 nM; in test [5], 8.9 nM; in test [6], 340 nM. The Ki in test [7] worked out at 8.3 nM; in test [8] it was 69 nM; in test [9], 5300 nM; in [10], 81 nM; in test [11] it was 8 nM; in test [12] it was 11 nM.
In the case of `CCc1nn(CCCN2CCN(c3cccc(Cl)c3)CC2)c(=O)n1CCOc1ccccc1` [2-{3-[4-(3-chlorophenyl)piperazin-1-yl]propyl}-5-ethyl-4-(2-phenoxyethyl)-2,4-dihydro-3H-1,2,4-triazol-3-one], the Ki in test [2] was 1000 nM; in test [3], 110 nM; in test [4], greater than 10000 nM; in [5] it was greater than 10000 nM; in test [6], 1200 nM; in test [7], 370 nM. The Ki in [8] came out at 42 nM; in [9], 470 nM; in test [10], 1500 nM.
As for `COCCCC/C(=N\OCCN)c1ccc(C(F)(F)F)cc1` [(1E)-5-methoxy-1-[4-(trifluoromethyl)phenyl]pentan-1-one O-(2-aminoethyl)oxime], the Ki in [1] was greater than 10000 nM; in test [2] it was greater than 10000 nM; in test [3], 620 nM; in test [4] it was greater than 10000 nM; in test [5], greater than 10000 nM; in test [6], 1900 nM. Besides, the inhibition constant Ki in test [7] was greater than 10000 nM; in test [8], 4800 nM; in test [9], greater than 10000 nM; in [10] it was greater than 10000 nM; in [11] it was 6700 nM; in test [12] it was greater than 10000 nM.
As to `CC(NC(C)(C)C)C(=O)c1cccc(Cl)c1` (stereo unspecified) [BUPROPION HYDROCHLORIDE], the Ki was greater than 10000 nM in test [1]; 1400 nM in test [3]; greater than 10000 nM in test [4]; greater than 10000 nM in [5]; greater than 10000 nM in test [6]; greater than 10000 nM in test [8]. Besides, the Ki was 570 nM in test [9], greater than 10000 nM in [10] and greater than 10000 nM in test [11].
On to `CN(C)CCC=C1c2ccccc2CSc2ccccc21` [CAS_897-15-4], for which the Ki in test [2] came to 4000 nM; in test [3] it was 70 nM; in [5] it was 26 nM; in test [6], 12 nM; in test [7], 4 nM; in test [8], 419 nM. Moreover, the results for the Ki in [9] and in test [12] were 5180 nM and 152 nM, respectively.
For the molecule `CN(CCCN1c2ccccc2CCc2ccccc21)CC(=O)c1ccc(Cl)cc1` [CAS_23047-25-8], the Ki in test [1] was 6700 nM; in test [2] it was greater than 10000 nM; in [3] it was 2.7 nM; in test [4], greater than 10000 nM; in test [5], 300 nM; in test [6], 2100 nM. Moreover, the Ki in [7] was 1000 nM; in test [8] it was 620 nM; in test [13], 880 nM; in test [9], 3300 nM; in test [10], 500 nM; in [12], 1200 nM.
Consider `CN(C)CCCC1(c2ccc(F)cc2)OCc2cc(C#N)ccc21` (stereo unspecified) [CITALOPRAM HYDROBROMIDE], for which the Ki was greater than 10000 nM in test [1]; greater than 10000 nM in test [2]; greater than 10000 nM in test [4]; 5600 nM in test [5]; greater than 10000 nM in test [6]; greater than 10000 nM in test [10]. The Ki in [11] is 630 nM.
As for `COc1ccc(C(CN(C)C)C2(O)CCCCC2)cc1` (stereo unspecified) [NSC_62923], the Ki in test [1], in test [2], in test [5], in [6], in test [7] and in test [10] was greater than 10000 nM each time. In test [11], this molecule registered a Ki greater than 10000 nM.
For `Fc1ccc([C@@H]2CCNC[C@H]2COc2ccc3c(c2)OCO3)cc1` [PAROXETINE], the Ki in test [1] is greater than 10000 nM; in test [2], greater than 10000 nM; in test [4], greater than 10000 nM; in test [5], 210 nM; in [6] it was 8900 nM; in [7], greater than 10000 nM. Moreover, the Ki in test [8], in test [10] and in test [11] was greater than 10000 nM in each case.
For `CNCC[C@@H](Oc1ccc(C(F)(F)F)cc1)c1ccccc1` [Prozac], the Ki is greater than 10000 nM in test [1], greater than 10000 nM in test [4], 3200 nM in test [7] and greater than 10000 nM in [10].
On to `CN[C@@H]1CC[C@@H](c2ccc(Cl)c(Cl)c2)c2ccccc21` [[4-(3,4-Dichloro-phenyl)-1,2,3,4-tetrahydro-naphthalen-1-yl]-methyl-amine], for which the inhibition constant Ki was greater than 10000 nM in test [1]; greater than 10000 nM in test [2]; greater than 10000 nM in test [4]; 1100 nM in test [5]; greater than 10000 nM in test [7]; 2800 nM in test [8]. In test [10], this molecule had a Ki of 6300 nM.
